Experimental data taken from patent EP1028734B1, “USE OF SPECIFIC STEADY-STATE R-TYPE CALCIUM CHANNEL BLOCKERS” (priority 1997, dated 1999).
Read-outs that look alike come from different tables or passages of the source.

Key:
R-type Ca^2+ channel = experiment: block of R-type Ca2+ channel (data not shown); type: cell-based
tail-flick in mice = type: in vivo; settings: i.p.
From the text: (§1) The antinociceptive actions of compound MV 8612 and MV 8608 were investigated in different models of nociception in mice as reported previously (Vaz et al., 1996, J. Pharmacol. Exp. Ther. 278:304-312).

[1] = writhe responses in mice (acetic acid, acetylcholine, kaolin); type: in vivo; settings: i.p., mice; for ID50 ACETYLCHOLINE: acetylcholine-induced writhes; for ID50 KAOLIN: kaolin-induced writhes
From the text: as §1

fast Na^+ channel = experiment: block of fast Na+ channel (data not shown); type: cell-based; settings: read-out: ED50, fast Na^+ channel
[2] = anaesthetized guinea pig, blood pressure and bronchoconstriction, PAF challenge; type: in vivo
From the text: (§2) On the other hand, in vivo administered PAF, induced a marked hypotension in the anaesthetized rat and guinea pig.

[3] = organ (allograft) transplant with cyclosporin A treatment, ET-1, blood flow, hypertension; type: in vivo, rabbit
[4] = anaesthetized rat, blood pressure, PAF challenge; type: in vivo; settings: results not shown
From the text: as §2

[5] = tested on: human osteoblast cancer lines (MG63 and FAOS-2); experiment: spontaneous proliferation of human osteoblast cancer lines; type: cell-based; settings: Lomir/Dynacirc 10^-8M, nifedipine 10^-6M, non published results
[6] = cited from earlier work
[7] = La Civita et al., 1996; cited from earlier work
[8] = transplant patients, Berg et al., 1991

With COc1ccc(CCN(C)CCCC(C#N)(c2ccc(OC)c(OC)c2)C(C)C)cc1OC (stereo not shown) [Verapamil] the “block of the R-type Ca^2+ by L-type Ca^2+ channel blockers” value (shortened to “block”) (R-type Ca^2+ channel) was “none were found to block”.
For COc1ccc2c(c1)c(CC(=O)O)c(C)n2C(=O)c1ccc(Cl)cc1 [INDOMETHACIN, indomethacin], the “ID50 TAIL-FLICK” value (tail-flick in mice) was “no effect”, the “ID50 ACETIC ACID” value ([1]; acetic acid-induced writhes) was 1.2 (0.9-1.4) µmol/kg and the “ID50 ACETYLCHOLINE” value [1] was 0.8 (0.5-1.0) µmol/kg. The “ID50 KAOLIN” value [1] was 1.6 (1.4-1.8) µmol/kg.
For COc1ccc([C@@H]2Sc3ccccc3N(CCN(C)C)C(=O)[C@@H]2OC(C)=O)cc1 [Diltiazem], the “block” value (R-type Ca^2+ channel) was “none were found to block”.
For COC(=O)C1=C(C)NC(C)=C(C(=O)OC(C)C)C1c1cccc2nonc12 (stereo not shown) [isradipine], the EC50 (fast Na^+ channel) was about 10 µM, the “intrinsic (hypotensive) effect” value [2] was “marked intrinsic hypotensive properties” and the “elevated circulating endothelin level induced with the Sandimmune drugs” value ([3]; data not shown) was “blocks”. The “hypertension and ET-1 plasma elevation associated with cyclosporin A treatment in allograft transplant” value ([3]; non published results) was “blocked”, the “increase of circulating ET-1 and decrease of blood flow in organ transplants” value ([3]; rabbit, cyclosporin-A treated and transplanted animals) was “restored” and the intrinsic hypotensive properties [4] was “marked intrinsic hypotensive properties”. The spontaneous cell proliferation [5] was “reduced”, the filtration fraction ([6]; 3-month study, Grossman et al. 1991) was “remained constant” and the filtration fraction [6, 8] was “reduced”. For the same compound, the renal blood flow [6, 8] was “increased” and the “elevated plasma concentration of ET-1 level, frequency, severity of acute attacks of Raynaud's phenomenon” value [7] was “significantly reduced”.
For COC(=O)C1=C(C)NC(C)=C(C(=O)OC)C1c1ccccc1[N+](=O)[O-] [nifedipine], the “intrinsic (hypotensive) effect” value [2] was “marked intrinsic hypotensive properties” and the intrinsic hypotensive properties [4] was “marked intrinsic hypotensive properties”.
In the case of COc1ccc(CCN(C)CCCC(C#N)(c2cc(OC)c(OC)c(OC)c2)C(C)C)cc1OC (stereo not shown) [D600], the “block” value (R-type Ca^2+ channel) is reported as “none were found to block”.
For COc1cccc(CCN(C)CCCC(C#N)(c2ccc(OC)c(OC)c2)C(C)C)c1 (stereo not shown) [D888], the “block” value (R-type Ca^2+ channel) was “none were found to block”.
In the case of CN1CC[C@]23c4c5ccc(O)c4O[C@H]2[C@@H](O)C=C[C@H]3[C@H]1C5 [MORPHINE, morphine], the “ID50 TAIL-FLICK” value (tail-flick in mice) is reported as 6.0(5.7-6.4) µmol/kg, the “ID50 ACETYLCHOLINE” value [1] is reported as 1.4 (1.0-1.8) µmol/kg and the “ID50 KAOLIN” value [1] is reported as 1.4 (1.2-1.7) µmol/kg.
In the case of COc1ccc([C@@H]2Sc3cc(Cl)ccc3N(CCN(C)C)C(=O)[C@@H]2OC(C)=O)cc1 [Clentiazem], the “block” value (R-type Ca^2+ channel) is reported as “none were found to block”.
